Starred links: 1 amine or outer side, 2 acyl side, 3 side chain; linkers in the order of their positions; H or OH if unused. Non-standard residues stand in square brackets, D forms with d. Residues, ends and D or L forms follow the SMILES beside them. Groups on a side chain read outwards from the residue. *: point of attachment. C18 diacid = O=C(O)CCCCCCCCCCCCCCCCC(=O)*; αMePhe(2-F) = C[C@](N)(Cc1ccccc1F)C(=O)O; γGlu = O=C(O)[C@H](CCC(=O)[*:2])N[*:1]; AEEA = NCCOCCOCC(=O)O; Aib = CC(C)(N)C(=O)O
What was measured:
Type in all cases: cell-based
GCGR = biological target: T1, GCGR (Homo sapiens, UniProt P47871); assay: In vitro cell activity, cAMP production in HEK293 cells expressing GCGR; details: HEK293-GCGR cells, cAMP; read-out: GCGR (EC50)
T1 construct: expressed in transfected cells; host or cells: HEK293 (HEK293-GCGR)
Procedure, shortened: (§1)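 Assay format: cells at 4×10^5 cells/mL, cAMP sensed by d2/cryptate FRET pair, dual-wavelength read at 665 and 620 nm. Potency expressed as EC50 from nonlinear fitting.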

GIPR = biological target: T2, GIPR (Homo sapiens, UniProt P48546); assay: In vitro cell activity, cAMP production in HEK293 cells expressing GIPR; details: HEK293-GIPR cells, cAMP; read-out: GIPR (EC50)
T2 construct: expressed in transfected cells; host or cells: HEK293 (HEK293-GIPR)
T2 sequence (P48546 22-466): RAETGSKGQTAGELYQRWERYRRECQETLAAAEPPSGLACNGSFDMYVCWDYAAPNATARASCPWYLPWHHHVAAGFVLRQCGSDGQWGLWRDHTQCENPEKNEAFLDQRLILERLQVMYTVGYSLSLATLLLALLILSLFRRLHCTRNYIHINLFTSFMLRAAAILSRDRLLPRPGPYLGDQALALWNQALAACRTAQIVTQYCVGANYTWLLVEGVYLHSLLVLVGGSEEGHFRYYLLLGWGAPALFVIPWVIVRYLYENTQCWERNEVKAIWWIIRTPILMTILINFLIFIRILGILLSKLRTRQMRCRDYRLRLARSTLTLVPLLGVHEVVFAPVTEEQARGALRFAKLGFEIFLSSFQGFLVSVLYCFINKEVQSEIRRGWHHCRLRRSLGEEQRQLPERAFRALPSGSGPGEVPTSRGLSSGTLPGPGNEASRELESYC
Procedure, shortened: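 cAMP accumulation is quantified by homogeneous TR-FRET (cAMP-d2 plus anti-cAMP cryptate) in GIPR-expressing HEK293 cells seeded from a 4×10^5 cells/mL suspension and treated with compound. The signal ratio is plotted against concentration and fitted to a four-parameter curve to give EC50.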

GLP-1R = biological target: T3, GLP-1R (Homo sapiens, UniProt P43220); assay: In vitro cell activity, cAMP production in HEK293 cells expressing GLP-1R; details: HEK293-GLP-1R cells, cAMP; read-out: GLP-1R (EC50)
T3 construct: expressed in transfected cells; host or cells: HEK293 (HEK293-GLP-1R)
Procedure, shortened: as §1

T3 sequence (P43220 24-463, species assumed): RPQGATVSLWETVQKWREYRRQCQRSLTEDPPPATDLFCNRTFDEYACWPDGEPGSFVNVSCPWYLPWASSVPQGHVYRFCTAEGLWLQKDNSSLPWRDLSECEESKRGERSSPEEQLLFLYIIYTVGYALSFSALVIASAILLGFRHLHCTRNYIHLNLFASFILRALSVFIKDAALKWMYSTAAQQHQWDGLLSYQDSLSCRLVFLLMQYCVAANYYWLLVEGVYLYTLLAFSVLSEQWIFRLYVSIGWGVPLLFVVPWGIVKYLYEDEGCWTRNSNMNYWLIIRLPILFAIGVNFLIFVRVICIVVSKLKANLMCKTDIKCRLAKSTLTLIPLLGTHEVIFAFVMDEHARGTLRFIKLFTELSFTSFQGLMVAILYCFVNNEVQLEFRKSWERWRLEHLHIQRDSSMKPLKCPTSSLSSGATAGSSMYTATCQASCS
T1 sequence (P47871 26-477, species assumed): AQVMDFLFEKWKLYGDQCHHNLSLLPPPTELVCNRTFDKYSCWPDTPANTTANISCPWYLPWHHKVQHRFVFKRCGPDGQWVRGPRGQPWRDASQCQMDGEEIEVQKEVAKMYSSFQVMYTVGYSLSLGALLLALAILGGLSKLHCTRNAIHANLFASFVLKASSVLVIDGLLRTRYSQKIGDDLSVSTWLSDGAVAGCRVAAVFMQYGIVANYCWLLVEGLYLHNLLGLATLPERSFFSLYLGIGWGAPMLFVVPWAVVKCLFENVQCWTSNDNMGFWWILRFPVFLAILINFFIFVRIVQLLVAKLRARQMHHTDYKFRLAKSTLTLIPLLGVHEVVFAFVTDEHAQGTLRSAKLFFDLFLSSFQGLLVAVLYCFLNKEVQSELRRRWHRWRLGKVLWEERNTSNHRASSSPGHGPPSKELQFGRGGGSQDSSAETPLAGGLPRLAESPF

| SMILES | EC50 (GCGR) [nM] | EC50 (GIPR) [nM] | EC50 (GLP-1R) [nM] |
| --- | --- | --- | --- |
| CC[C@H](C)[C@H](NC(=O)[C@H](Cc1ccccc1)NC(=O)[C@H](C)NC(=O)[C@H](CCC(N)=O)NC(=O)[C@H](CCC(N)=O)NC(=O)[C@H](CCCNC(=N)N)NC(=O)[C@H](CCCCNC(=O)COCCOCCNC(=O)CC[C@H](NC(=O)CCCCCCCCCCCCCCCCCCC(=O)O)C(=O)O)NC(=O)[C@H](CCCNC(=N)N)NC(=O)[C@H](CC(=O)O)NC(=O)[C@H](CC(C)C)NC(=O)[C@H](CC(C)C)NC(=O)[C@@H](NC(=O)[C@H](CO)NC(=O)[C@H](Cc1ccc(O)cc1)NC(=O)[C@H](CC(=O)O)NC(=O)[C@H](CO)NC(=O)[C@@H](NC(=O)[C@](C)(Cc1ccccc1F)NC(=O)[C@@H](NC(=O)CNC(=O)[C@H](CCC(N)=O)NC(=O)C(C)(C)NC(=O)[C@@H](N)Cc1ccc(O)cc1)[C@@H](C)O)[C@@H](C)O)[C@@H](C)CC)C(=O)N[C@@H](CCC(=O)O)C(=O)N[C@@H](Cc1ccc(O)cc1)C(=O)N[C@@H](CC(C)C)C(=O)N[C@@H](CC(C)C)C(=O)N[C@@H](C)C(=O)NCC(=O)NCC(=O)N1CCC[C@H]1C(=O)N[C@@H](CO)C(=O)N[C@@H](CO)C(=O)NCC(=O)N[C@@H](C)C(=O)N1CCC[C@H]1C(=O)N1CCC[C@H]1C(=O)N1CCC[C@H]1C(=O)N[C@@H](CO)C(=O)O [HEC-PT128] | 0.128 | 0.0608 | 0.38 |
| CC[C@H](C)[C@H](NC(=O)[C@H](CCCCN)NC(=O)[C@H](CC(=O)O)NC(=O)[C@H](CCCCNC(=O)COCCOCCNC(=O)CC[C@H](NC(=O)CCCCCCCCCCCCCCCCC(=O)O)C(=O)O)NC(=O)[C@H](CC(C)C)NC(=O)[C@@H](NC(=O)[C@H](CO)NC(=O)[C@H](Cc1ccc(O)cc1)NC(=O)[C@H](CC(=O)O)NC(=O)[C@H](CO)NC(=O)[C@@H](NC(=O)[C@](C)(Cc1ccccc1F)NC(=O)[C@@H](NC(=O)CNC(=O)[C@H](CCC(N)=O)NC(=O)C(C)(C)NC(=O)[C@@H](N)Cc1ccc(O)cc1)[C@@H](C)O)[C@@H](C)O)[C@@H](C)CC)C(=O)N[C@@H](C)C(=O)N[C@@H](CCC(N)=O)C(=O)N[C@@H](CCCCN)C(=O)N[C@@H](C)C(=O)N[C@@H](Cc1ccccc1)C(=O)N[C@H](C(=O)N[C@@H](CCC(=O)O)C(=O)N[C@@H](Cc1ccc(O)cc1)C(=O)N[C@@H](CC(C)C)C(=O)N[C@@H](CC(C)C)C(=O)N[C@@H](C)C(=O)NCC(=O)NCC(=O)N1CCC[C@H]1C(=O)N[C@@H](CO)C(=O)N[C@@H](CO)C(=O)NCC(=O)N[C@@H](C)C(=O)N1CCC[C@H]1C(=O)N1CCC[C@H]1C(=O)N1CCC[C@H]1C(=O)N[C@@H](CO)C(N)=O)[C@@H](C)CC [HEC-PT140] (H-Y[Aib]QGT[αMePhe(2-F)]TSDYSILK([AEEA-γGlu-C18 diacid])DKIAQKAFIEYLLAGGPSSGAPPPS-NH2) | 0.272 | 0.0543 | 0.152 |
| CC[C@H](C)[C@H](NC(=O)[C@H](Cc1ccccc1)NC(=O)[C@H](C)NC(=O)[C@H](CCCNC(=N)N)NC(=O)[C@H](CCC(N)=O)NC(=O)[C@H](CCCNC(=N)N)NC(=O)[C@H](CCCCNC(=O)COCCOCCNC(=O)CC[C@H](NC(=O)CCCCCCCCCCCCCCCCC(=O)O)C(=O)O)NC(=O)[C@H](CCC(=O)O)NC(=O)[C@H](CC(=O)O)NC(=O)[C@H](CC(C)C)NC(=O)[C@H](CC(C)C)NC(=O)[C@@H](NC(=O)[C@H](CO)NC(=O)[C@H](Cc1ccc(O)cc1)NC(=O)[C@H](CC(=O)O)NC(=O)[C@H](CO)NC(=O)[C@@H](NC(=O)[C@](C)(Cc1ccccc1F)NC(=O)[C@@H](NC(=O)CNC(=O)[C@H](CCC(N)=O)NC(=O)C(C)(C)NC(=O)[C@@H](N)Cc1ccc(O)cc1)[C@@H](C)O)[C@@H](C)O)[C@@H](C)CC)C(=O)N[C@@H](CCC(=O)O)C(=O)N[C@@H](Cc1ccc(O)cc1)C(=O)N[C@@H](CC(C)C)C(=O)N[C@@H](CC(C)C)C(=O)N[C@@H](CCC(=O)O)C(=O)NCC(=O)NCC(=O)N1CCC[C@H]1C(=O)N[C@@H](CO)C(=O)N[C@@H](CO)C(=O)NCC(=O)N[C@@H](C)C(=O)N1CCC[C@H]1C(=O)N1CCC[C@H]1C(=O)N1CCC[C@H]1C(=O)N[C@@H](CO)C(=O)O [HEC-PT124] | 0.332 | 0.152 | 0.228 |

From patent EP4596574A1, “GLP-1/GCG/GIP TRIPLE-RECEPTOR AGONIST AND USE THEREOF” (Sunshine Lake Pharma Co., Ltd., priority 2022, dated 2024)
